≈ marks a conversion by molar mass, not a printed value. Some results are limits rather than exact numbers.

One assay has as its system A. laidlawii PG-8. The assay is described as follows: Anti-mycoplasmal activity (MIC, MMC), liquid dilution method. In kind it is cell-based. Conditions: Acholeplasma laidlawii, liquid dilution, A. laidlawii PG-8; for MBC: PG8, 120 h, read-out: MMC; for MIC: PG8, read-out: MIC. Here is the method: (§1) The minimum growth inhibitory concentration (MIC, μg/ml) and minimum mycoplasmacidal concentration (MMC, μg/ml) of test chemicals were measured by the liquid dilution method. The method of measuring MIC in this example differs from that used in Test Example 1.
(§2) A 1,000 μg/ml aqueous solution of a test chemical was prepared, and diluted to 5 times with a preculture medium. The dilution (200 μg/ml) was serially diluted twofold with the same medium in a 8-well reservoir. Fifty microliters of each diluted solution was distributed in the wells of a microplate. A well to which no test chemical was added was used as a control.
(§3) A mycoplasma suspension for inoculation prepared as in Test Example 1 was pipetted in an amount of 50 microliters to each of the wells. The microplates were sealed by a plate seal, shaken by a micromixer, and cultivated at 37° C. for 5 days. In the control to which no test chemical was added, color change of the medium by the growth of mycoplasma was observed after two days from the start of the cultivation. At this time, 3 microliters of the liquid culture was inoculated in drug-free Chanock agar medium by using a Cathra-replicator. The liquid culture and the agar medium were further cultivated at 37° C. for 3 days (anaerobically in the case of M. orale, and aerobically in the case of A. laidlawii and M. arginini). MIC and MMC were determined from the results of observation on the 5th day. MIC was defined as the lowest concentration of the test chemical at which growth of mycoplasma in the drug-containing liquid medium was not noted, and MMC, as that in the drug-free agar medium.

In a further assay the test system is A. laidlawii PG8. The assay is described as follows: Anti-mycoplasmal activity (MIC), agar-dilution method. Conditions: Acholeplasma laidlawii; agar dilution; A. laidlawii PG8; read-out: MIC. In kind it is cell-based. Here is the method: (§4) The minimum growth inhibitory concentrations (MIC; μg/ml) of the test chemicals were measured by the agar-dilution method.
(§5) (1) Preparation of a mycoplasma suspension for inoculation
(§6) A stored frozen suspension of mycoplasma (0.2 to 0.3 ml) was inoculated in 2 to 3 ml of a preculture medium to be described later. It was serially diluted tenfold until the dilution ratio reached 10,000 times. These diluted solutions were cultivated at 37° C. for 2 to 7 days. A culture having the highest dilution ratio was selected from those cultures in which a color change of the media was noted as a result of mycoplasma growth. It was diluted to 100 times with the preculture medium to prepare a mycoplasma suspension for inoculation.
(§7) The following preculture media were used.
(§8) For Mycoplasma pneumoniae and Acholeplasma laidlawii, Chanock liquid medium containing 0.5% glucose (pH 7.8) [Library of Bacteriology 2, "Procedures for Isolation and Identification of Human, Animal and Plant Mycoplasmas", edited by Japanese Society for Bacteriology, page 8 (1982), Saikon Publishing Co.] was used.
(§9) (2) Preparation of agar plates containing the test chemicals
(§10) A 1,000 μg/ml aqueous solution of each test chemical was prepared (a difficultly-soluble chemical was dissolved by adding an equimolar amount of sodium hydroxide; the same applies hereinafter). The solution was used as a base solution and its twofold serial dilutions were prepared. The diluted solutions were pipetted on plastic petri dishes each in an amount of 1 ml. The Chanock agar medium (for Mycoplasma hyorhinis, 0.5% mucin was further added) described at page 9 of the above cited "Procedures for Isolation and Identification of Human, Animal and Plant Mycoplasmas" was heated and kept at 55° C. and put in an amount of 9 ml in each of the petri dishes containing the test chemicals and fully mixed with the test chemicals to prepare agar plates containing the test chemicals.
(§11) The mycoplasma suspension for inoculation prepared by the procedure described in section (1) was inoculated in an amount of about 3 microliters on each of the chemical-containing agar plates by means of a Cathra-replicator (3 mm pin). The plates on which Mycoplasma pneumoniae, Mycoplasma arginini, and Acholeplasma laidlawii and Mycoplasma hyorhinis were inoculated were tightly packed in a plastic bag together with the plasic petri dishes including water-immersed absorbent cotton. Mycoplasma pneumoniae was aerobically cultivated at 37° C. under highly humid conditions for 7 days; and Mycoplasma arginini and Acholeplasma laidlawii, for 2 days. The other mycoplasma species were cultivated anaerobically for 2 days by using a GasPak anaerobic system (BBL). After the cultivation, growth of mycoplasma were observed under an OLYMPUS microscope (20-100 X). The lowest concentration of the test chemical at which no growth of mycoplasma was noted is defined as MIC.

The test system of the next assay is M. pnumoniae Mac. The assay is described as above. In kind it is cell-based, Mycoplasma pneumoniae. Conditions: Mycoplasma; agar dilution; M. pnumoniae Mac; read-out: MIC. Here is the method:
as §4, §5, §6, §7, §8, §9, §10, §11

A further assay concerns M. orale CH19299. Described as above. In kind it is cell-based, Mycoplasma orale. The following applies: Metamycoplasma orale; agar dilution; M. orale CH19299; read-out: MIC. Here is the method:
as §4, §5, §6, §7
For other mycoplasma species, Chanock liquid medium (pH 6.8) containing 0.2% arginine was used.
as §9, §10, §11

The next assay concerns M. arginini G-230. As to the kind of experiment: Anti-mycoplasmal activity (MIC, MMC), liquid dilution method. In kind it is cell-based, Mycoplasma arginini. Conditions: Mycoplasmopsis arginini, liquid dilution, M. arginini G-230; for MBC: G230, 120 h, read-out: MMC; for MIC: G230, read-out: MIC. Here is the method:
as §1, §2, §3

The next assay deals with M. orale CH-19299. Described as above. The following applies: Metamycoplasma orale, liquid dilution, M. orale CH-19299; for MBC: CH19299, 120 h, read-out: MMC; for MIC: CH19299, read-out: MIC. In kind it is cell-based, Mycoplasma orale. Here is the method:
as §1, §2, §3

A word on the MIC: it is the lowest concentration that inhibits growth of the organism. With `CC1CN(c2c(F)c(N)c3c(=O)c(C(=O)O)cn(C4CC4)c3c2F)CCN1` (stereo not drawn) [Compound 1], the MBC in the assay on A. laidlawii PG-8 was found to be 0.2 µg/mL (≈ 0.529 µM); in the assay with M. arginini G-230, 0.1 µg/mL (≈ 0.264 µM); in the assay on M. orale CH-19299 it was 0.39 µg/mL (≈ 1.03 µM). Moreover, the MIC in the assay with A. laidlawii PG-8 is 0.2 µg/mL (≈ 0.529 µM); in the assay on A. laidlawii PG8, 0.1 µg/mL (≈ 0.264 µM); with M. pnumoniae Mac, 0.025 µg/mL (≈ 0.0661 µM); with M. orale CH19299 it was 0.2 µg/mL (≈ 0.529 µM); with M. arginini G-230, 0.1 µg/mL (≈ 0.264 µM); in the assay with M. orale CH-19299, 0.39 µg/mL (≈ 1.03 µM).
For `CN(C)c1ccc(O)c2c1C[C@H]1C[C@H]3[C@H](N(C)C)C(O)=C(C(N)=O)C(=O)[C@@]3(O)C(O)=C1C2=O` [Compound 3, minocycline], the MBC was greater than 100 µg/mL with A. laidlawii PG-8, greater than 100 µg/mL with M. arginini G-230 and 25 µg/mL (≈ 54.6 µM) in the assay on M. orale CH-19299. Moreover, the MIC in the assay on A. laidlawii PG-8 is 0.2 µg/mL (≈ 0.437 µM); in the assay on A. laidlawii PG8, 0.2 µg/mL (≈ 0.437 µM); with M. pnumoniae Mac, 0.78 µg/mL (≈ 1.7 µM); in the assay on M. orale CH19299 it was 0.1 µg/mL (≈ 0.219 µM); in the assay on M. arginini G-230 it was 0.39 µg/mL (≈ 0.852 µM); in the assay with M. orale CH-19299, 0.39 µg/mL (≈ 0.852 µM).
Regarding `NCC1CN(c2c(F)c(N)c3c(=O)c(C(=O)O)cn(C4CC4)c3c2F)CCO1` (stereo not drawn) [Compound A, 5-amino-7-(2-aminomethylmorpholino)-1-cyclopropyl-6,8-difluoro-1,4-dihydro-4-oxoquinoline-3-carboxylic acid], the figures for the MBC in the assay with A. laidlawii PG-8, in the assay with M. arginini G-230 and in the assay with M. orale CH-19299 were 0.0125 µg/mL (≈ 0.0317 µM), 0.05 µg/mL (≈ 0.127 µM) and 0.05 µg/mL (≈ 0.127 µM), respectively. Also, the minimum inhibitory concentration (MIC) with A. laidlawii PG-8 stood at 0.0125 µg/mL (≈ 0.0317 µM); in the assay with A. laidlawii PG8, 0.0125 µg/mL (≈ 0.0317 µM); with M. pnumoniae Mac, 0.0125 µg/mL (≈ 0.0317 µM); with M. orale CH19299 it was 0.05 µg/mL (≈ 0.127 µM); in the assay on M. arginini G-230 it was 0.05 µg/mL (≈ 0.127 µM); in the assay on M. orale CH-19299, 0.05 µg/mL (≈ 0.127 µM).

(Values after US5051419A, “Prevention or elimination of mycoplasma contamination of animal or plant cell cultures” (Dainippon Pharmaceutical Co., Ltd., priority 1988, dated 1991).)
